Square brackets hold non-standard residues; d marks the D form. Peptide text beside a SMILES is read from it.
Tests used:
[1] = tested on: human whole blood; assay: Cytokine release in human whole blood stimulated 4 hours with LPS or PMA+ionomycin; assay type: cell-based; details: human whole blood, 1, 3, 10 μM
Procedure: FIG. 18 JNK inhibition and IL-6 release in human whole blood. The JNK inhibitor with SEQ ID NO: 172 was added at three different concentrations, namely 1, 3 and 10 μM 1 h before whole blood stimulation with LPS (0.02 ng/mL) for 4 hours.
FIG. 19 JNK inhibition and IL-2 release in human whole blood. The JNK inhibitor with SEQ ID NO: 172 was added at three different concentrations, namely 1, 3 and 10 μM 1 h before whole blood stimulation with PMA+ionomycin (25/700 ng/mL, 50/800 ng/mL and 50/1000 ng/mL) for 4 hours.
Whole blood is collected from anesthetized rat or human healthy volunteers using a venipuncture connected to a pre-labeled vacuum tube containing sodium citrate. Tubes are gently mixed by inversion 7-8 times; and are then kept at RT until stimulation. JNK inhibitor of SEQ ID NO: 172 is prepared 6 times concentrated in PBS, and 30 μl/well of mix is added into 96-well plate. Whole blood is diluted by 1:2 in PBS and 120 μl of diluted blood is added in each well where either PBS alone or JNK inhibitor of SEQ ID NO: 172 has been previously added. Whole blood is incubated at 37° C.; 85 rpm (Stuart Orbital incubator SI500) for 60 min. Activators (LPS) are the prepared, 30 μl/well of LPS, 6 times concentrated. After 60 min incubation, LPS is added to the blood, blood is mixed by pipetting up and down, and then kept for 4 h under agitation (85 rpm), at 37° C. After the 4 h incubation, the plates are centrifuged at about 770 g, 4° C. for 15 min in a pre-cooled centrifuge. Supernatants are finally collected and kept at −20° C. until cytokine measurement. Cytokine (IL-6, IL-2, IFNγ and TNFα) were then measured using standard Elisa kits (e.g. from R&D Systems: DuoSet Elisas; or from BD Biosciences: BD Opteia Set Elisa). Results are expressed as pg/ml of supernatant of the measured cytokine.
A similar experiment was conducted with PMA+ionomycin instead of LPS as activator/stimulant.

[2] = dissolved in 0.9% NaCl, up to 0.4 mg/ml
Text: To receive three different doses (cf. above, groups table) it has been serially diluted (1:10 fold).

[3] = tested on: endotoxins-induced uveitis albino rat model; assay: Endotoxins-induced uveitis (EIU), single intravenous injection, clinical scoring 24 h after LPS; assay type: in vivo; parameters: key to EIU clinical score, median: clinical score per eye, 0 to 4 scale; details: for EIU clinical score, mean±SEM / EIU clinical score, median: 24 hours after LPS
Procedure: The aim of this study was to determine the effects of single intravenous injections of SEQ ID NO: 172 (0.015, 0.18, and 1.80 mg/kg) on the inflammatory response in an endotoxins-induced uveitis albino rat model and to compare these affects to those obtained with prior art JNK inhibitor of SEQ ID NO: 197 (2 mg/kg). As a further control served phosphate sodic dexamethasone.
Sixty (60) male Lewis rats were randomly divided into six (6) groups of ten (10) animals each. EIU was induced by footpad injection of lipopolysaccharide (LPS, 1 mg/kg). NaCl (0.9%), SEQ ID NO: 197 at 2 mg/kg and SEQ ID NO: 172 at three concentrations (1.80 mg/kg, 0.18 mg/kg and 0.015 mg/kg) were administered by intravenous injection. Phosphate sodic dexamethasone (20 μg/eye) was administered by sub-conjunctival injection in both eyes. 24 hours after LPS injection, inflammatory response was evaluated by clinical scoring.
The intensity of clinical ocular inflammation was scored on a scale from 0 to 4 for each eye: […]

CC(C)C[C@H](NC(=O)[C@H](CC(N)=O)NC(=O)[C@H](CC(C)C)NC(=O)[C@@H](NC(=O)[C@@H](C)NC(=O)[C@@H]1CCCN1C(=O)[C@H](CCCNC(=N)N)NC(=O)[C@@H](CCCCN)NC(=O)[C@@H]1CCCN1C(=O)[C@H](CCCNC(=N)N)NC(=O)[C@@H](CCCNC(=N)N)NC(=O)[C@H](CCCNC(=N)N)NC(=O)[C@H](CCCNC(=N)N)NC(=O)[C@H](CCC(N)=O)NC(=O)[C@@H](CCCNC(=N)N)NC(=O)[C@H](CCCNC(=N)N)NC(=O)[C@H](CCCCN)NC(=O)[C@H](CCCCN)NC(=O)[C@H](N)CCCNC(=N)N)[C@@H](C)O)C(=O)N[C@H](Cc1ccccc1)C(N)=O [SEQ ID NO: 172, rKKRrQRRrRPkRPaTLNLf] (H-[dR]KKR[dR]QRR[dR]RP[dK]RP[dA]TLNL[dF]-NH2)
PMA+ionomycin-induced IFN-γ release [1]: reduce the PMA+ionomycin-induced IFN-γ release in a dose-dependent manner
PMA+ionomycin-induced IL-2 release [1]: reduce the PMA+ionomycin-induced IL-2 release in a dose-dependent manner
PMA+ionomycin-induced TNF-α release [1]: reduce the PMA+ionomycin-induced TNF-α release in a dose-dependent manner
LPS-induced IL-6 release ([1]; LPS 0.02 ng/mL): reduce the LPS-induced IL-6 release in a dose-dependent manner
solubility [2]: readily soluble
EIU clinical score, mean±SEM ([3]; 0.015 mg/kg i.v.): 2.3±0.3
EIU clinical score, median ([3]; 0.015 mg/kg i.v.): 2
EIU clinical score, mean±SEM ([3]; 0.18 mg/kg i.v.): 2.4±0.3
EIU clinical score, median ([3]; 0.18 mg/kg i.v.): 2
EIU clinical score, mean±SEM ([3]; 1.80 mg/kg i.v.): 2.1±0.3
EIU clinical score, median ([3]; 1.80 mg/kg i.v.): 2
endotoxin-induced inflammation in the anterior chamber ([3]; intravenously injected at 0.015, 0.18, 1.80 mg/kg): also reduced the endotoxin-induced inflammation in the anterior chamber

Reference: patent US20160115200A1, “New Use for JNK Inhibitor Molecules for Treatment of Various Diseases” (XIGEN INFLAMMATION LTD., priority 2013, published 2016)
